Experimental data reported in article PMC9303812, “Asymmetrically Substituted m‐Terphenyl Phosphates Inhibit the Transcription Factor STAT5a” (Chembiochem, 2021).
Read-outs that look alike come from different tables or passages of the source.

Biological target: T1, STAT5a (Homo sapiens, UniProt P42229)
T1 sequence (P42229 1-794): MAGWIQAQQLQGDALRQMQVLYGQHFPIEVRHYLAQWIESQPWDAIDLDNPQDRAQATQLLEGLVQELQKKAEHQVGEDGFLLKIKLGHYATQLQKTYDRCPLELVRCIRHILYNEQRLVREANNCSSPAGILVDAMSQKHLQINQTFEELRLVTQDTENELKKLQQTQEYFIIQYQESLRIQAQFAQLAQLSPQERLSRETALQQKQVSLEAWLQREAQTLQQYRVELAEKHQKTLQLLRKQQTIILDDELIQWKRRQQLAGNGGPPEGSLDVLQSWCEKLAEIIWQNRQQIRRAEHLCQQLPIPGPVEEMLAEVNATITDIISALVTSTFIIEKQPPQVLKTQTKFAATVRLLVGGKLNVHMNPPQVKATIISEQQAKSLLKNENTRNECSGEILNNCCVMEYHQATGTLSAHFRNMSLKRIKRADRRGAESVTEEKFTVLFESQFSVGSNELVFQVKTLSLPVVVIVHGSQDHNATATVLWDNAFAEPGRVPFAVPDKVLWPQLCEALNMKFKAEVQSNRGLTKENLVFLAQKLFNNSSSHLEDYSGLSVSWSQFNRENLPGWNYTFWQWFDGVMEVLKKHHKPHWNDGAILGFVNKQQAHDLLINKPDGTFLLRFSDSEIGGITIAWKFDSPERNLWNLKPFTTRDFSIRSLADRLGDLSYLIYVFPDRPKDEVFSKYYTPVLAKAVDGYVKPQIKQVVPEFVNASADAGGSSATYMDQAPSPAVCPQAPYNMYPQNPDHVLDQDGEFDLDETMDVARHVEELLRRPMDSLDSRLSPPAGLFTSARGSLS
Assay: Fluorescence polarization (FP) binding assay, STAT5a
Conditions: for selectivity with respect to other STAT family members: FP assays against STAT1, STAT3, STAT4, STAT6
Description: Table S1: Activities of test compounds against STAT5a and STAT5b in FP assays . Experiments were carried out in triplicate (n = 3) unless stated otherwise. n/a: not applicable.
[a]data taken from the literature.[1]
Ki values were calculated from IC50 values using the published equation.[2] […]
Table S2: Activities of 12 against STAT5 proteins in FP assays.
Fluorescence polarization assays
Fluorescence polarization assays were essentially carried out as previously described.[1] These assays quantitate to which extent a test compound is able to interfere with binding between a STAT protein and a fluorescein-labeled phosphotyrosine-containing peptide, which is known to bind to the SH2 domain of the respective STAT protein. The following protein […]
concentrations were used: 100 nM for STAT1, 150 nM for STAT3, 30 nM for STAT4, 180 nM for STAT5a, 90 nM for STAT5b and 105 nM for STAT6. All peptides were used at a concentration of 10 nM. The following peptides were used: 5 -carboxyfluorescein -GpYDKPHVL for STAT1; 5-carboxyfluorescein -GpYLPQTV-NH2 for STAT3; 5-carboxyfluorescein-GpYLPQNID-OH for STAT4; 5-carboxyfluorescein-GpYLVLDKW for STAT5a/b, and 5-carboxyfluorescein-GpYVPWQDLI-OH for STAT6. As a buffer system, 10 mM Tris (pH 8.0), 50 mM NaCl, 1 mM EDTA, 1 mM DTT, 0.1 % Nonidet P-40 substitute, and 2 % DMSO in water was used. All compounds tested were incubated for 1 h with the protein. Subsequently, the fluorescein-labeled peptide was added and the fluorescence polarization was measured with an Infinite F500 plate reader (Tecan) after another hour. IC50 values were converted to Ki-values using the published equation.[2]

Ki (FP assay, Ki calculated from IC50 (n=3; 6 a n=2), read-out: STAT5a Ki) | IC50 (FP assay, n=3 (6a n=2), read-out: STAT5a IC50) | SMILES | IC50 | Ki | selectivity with respect to other STAT family members
 |  | COc1cc(-c2cc(OP(=O)(O)O)cc(-c3cc(F)c(F)c(F)c3)c2)cc(OC)c1OC [6 b] | 22.1 ± 0.4 µM | 10.9 ± 0.2 µM | good selectivity
20 ± 2.1 µM | 40.4 ± 4.3 µM | COc1cc(-c2cc(-c3cc(F)c(F)c(F)c3)cc(C(F)P(=O)(O)O)c2)cc(OC)c1OC (stereo not drawn) [compound 12] |  |  | retains selectivity
